# Test results taken from ChEMBL document CHEMBL3885881, “DrugMatrix”.
# Species on record: Rattus norvegicus
# Experiment: DrugMatrix - Regimen: Daily Repeat
# Format: toxicity, organism-based, Sprague-Dawley
# Design: regimen Daily Repeat, gender Male, age 6-8 weeks
# Details: in vivo, po, route oral GAVAGE, […]; for ABSOLUTE BASOPHIL / ABSOLUTE EOSINOPHIL / ABSOLUTE LYMPHOCYTE / ABSOLUTE MONOCYTE / ABSOLUTE SEGMENTED NEUTROPHIL / BASOPHIL / EOSINOPHIL / ERYTHROCYTE COUNT / HEMATOCRIT / HEMOGLOBIN / LEUKOCYTE COUNT / LYMPHOCYTE / MEAN CORPUSCULAR HEMOGLOBIN / MEAN CORPUSCULAR HEMOGLOBIN CONCENTRATION / MEAN CORPUSCULAR VOLUME / MONOCYTE / NEUTROPHIL / NUCLEATED RED BLOOD CELLS / PLATELET COUNT: tissue Blood; for ALANINE AMINOTRANSFERASE / ALBUMIN / ALKALINE PHOSPHATASE / ASPARTATE AMINOTRANSFERASE / BLOOD UREA NITROGEN / CARBON DIOXIDE / CHLORIDE / CHOLESTEROL / CREATINE PHOSPHOKINASE / CREATININE / GLUCOSE / LACTATE DEHYDROGENASE / LIPASE / PHOSPHORUS / POTASSIUM / SODIUM / TOTAL BILIRUBIN / TOTAL PROTEIN / URIC ACID: tissue Plasma
# [1] = 0 mg/kg, 72 h, dose level Control, time 3 day
# [2] = 0 mg/kg, 120 h, dose level Control, time 5 day
# [3] = 10 mg/kg, 72 h, dose level Low, time 3 day
smiles,measurement,setting,value
COCCOC(=O)C1=C(C)NC(C)=C(C(=O)OC(C)C)C1c1cccc([N+](=O)[O-])c1 (centres undefined) [NIMODIPINE],ABSOLUTE BASOPHIL,[1],0 CELLS/uL
same,ABSOLUTE EOSINOPHIL,[1],0 CELLS/uL
same,ABSOLUTE LYMPHOCYTE,[1],9244.83 CELLS/uL
same,ABSOLUTE MONOCYTE,[1],102 CELLS/uL
same,ABSOLUTE SEGMENTED NEUTROPHIL,[1],869.83 CELLS/uL
same,BASOPHIL,[1],0%
same,EOSINOPHIL,[1],0%
same,ERYTHROCYTE COUNT,[1],5.43 x10E6/uL
same,HEMATOCRIT,[1],34.03%
same,HEMOGLOBIN,[1],13.27 G/DL
same,LEUKOCYTE COUNT,[1],10.22 x10E3/uL
same,LYMPHOCYTE,[1],90.33%
same,MEAN CORPUSCULAR HEMOGLOBIN,[1],24.48 pg
same,MEAN CORPUSCULAR HEMOGLOBIN CONCENTRATION,[1],39.03 G/DL
same,MEAN CORPUSCULAR VOLUME,[1],62.75 fL
same,MONOCYTE,[1],1%
same,NEUTROPHIL,[1],8.67%
same,NUCLEATED RED BLOOD CELLS,[1],0.17 /100WBC
same,PLATELET COUNT,[1],989 x10E3/uL
same,ALANINE AMINOTRANSFERASE,[1],77 u/L
same,ALBUMIN,[1],3.97 G/DL
same,ALKALINE PHOSPHATASE,[1],464.83 u/L
same,ASPARTATE AMINOTRANSFERASE,[1],89.83 u/L
same,BLOOD UREA NITROGEN,[1],12.17 mg/dL
same,CARBON DIOXIDE,[1],34.17 mmol/L
same,CHLORIDE,[1],98.33 MEQ/L
same,CHOLESTEROL,[1],75.17 mg/dL
same,CREATINE PHOSPHOKINASE,[1],367.67 u/L
same,CREATININE,[1],0.16 mg/dL
same,GLUCOSE,[1],142.67 mg/dL
same,LACTATE DEHYDROGENASE,[1],139.33 u/L
same,LIPASE,[1],9.5 u/L
same,PHOSPHORUS,[1],10.85 mg/dL
same,POTASSIUM,[1],6.38 MEQ/L
same,SODIUM,[1],143.2 MEQ/L
same,TOTAL BILIRUBIN,[1],0.2 mg/dL
same,TOTAL PROTEIN,[1],5.77 G/DL
same,URIC ACID,[1],0.7 mg/dL
same,ABSOLUTE BASOPHIL,[2],0 CELLS/uL
same,ABSOLUTE EOSINOPHIL,[2],0 CELLS/uL
same,ABSOLUTE LYMPHOCYTE,[2],8295.33 CELLS/uL
same,ABSOLUTE MONOCYTE,[2],84.67 CELLS/uL
same,ABSOLUTE SEGMENTED NEUTROPHIL,[2],970 CELLS/uL
same,BASOPHIL,[2],0%
same,EOSINOPHIL,[2],0%
same,ERYTHROCYTE COUNT,[2],5.74 x10E6/uL
same,HEMATOCRIT,[2],36.22%
same,HEMOGLOBIN,[2],13.85 G/DL
same,LEUKOCYTE COUNT,[2],9.35 x10E3/uL
same,LYMPHOCYTE,[2],88.67%
same,MEAN CORPUSCULAR HEMOGLOBIN,[2],24.13 pg
same,MEAN CORPUSCULAR HEMOGLOBIN CONCENTRATION,[2],38.25 G/DL
same,MEAN CORPUSCULAR VOLUME,[2],63.08 fL
same,MONOCYTE,[2],1%
same,NEUTROPHIL,[2],10.33%
same,NUCLEATED RED BLOOD CELLS,[2],0.17 /100WBC
same,PLATELET COUNT,[2],883.83 x10E3/uL
same,ALANINE AMINOTRANSFERASE,[2],64.5 u/L
same,ALBUMIN,[2],4.12 G/DL
same,ALKALINE PHOSPHATASE,[2],425.67 u/L
same,ASPARTATE AMINOTRANSFERASE,[2],88.5 u/L
same,BLOOD UREA NITROGEN,[2],14.17 mg/dL
same,CARBON DIOXIDE,[2],30.5 mmol/L
same,CHLORIDE,[2],100.33 MEQ/L
same,CHOLESTEROL,[2],55.33 mg/dL
same,CREATINE PHOSPHOKINASE,[2],287.17 u/L
same,CREATININE,[2],0.2 mg/dL
same,GLUCOSE,[2],162.83 mg/dL
same,LACTATE DEHYDROGENASE,[2],111.33 u/L
same,LIPASE,[2],10.5 u/L
same,PHOSPHORUS,[2],10.32 mg/dL
same,POTASSIUM,[2],5.13 MEQ/L
same,SODIUM,[2],143.93 MEQ/L
same,TOTAL BILIRUBIN,[2],0.17 mg/dL
same,TOTAL PROTEIN,[2],5.9 G/DL
same,URIC ACID,[2],0.77 mg/dL
same,ABSOLUTE BASOPHIL,[3],0 CELLS/uL
same,ABSOLUTE EOSINOPHIL,[3],0 CELLS/uL
same,ABSOLUTE LYMPHOCYTE,[3],10257 CELLS/uL
same,ABSOLUTE MONOCYTE,[3],34.33 CELLS/uL
same,ABSOLUTE SEGMENTED NEUTROPHIL,[3],975.33 CELLS/uL
same,BASOPHIL,[3],0%
same,EOSINOPHIL,[3],0%
same,ERYTHROCYTE COUNT,[3],5.25 x10E6/uL
same,HEMATOCRIT,[3],33.27%
same,HEMOGLOBIN,[3],13.03 G/DL
same,LEUKOCYTE COUNT,[3],11.27 x10E3/uL
same,LYMPHOCYTE,[3],92%
same,MEAN CORPUSCULAR HEMOGLOBIN,[3],24.83 pg
same,MEAN CORPUSCULAR HEMOGLOBIN CONCENTRATION,[3],39.2 G/DL
same,MEAN CORPUSCULAR VOLUME,[3],63.37 fL
same,MONOCYTE,[3],0.33%
same,NEUTROPHIL,[3],7.67%
same,NUCLEATED RED BLOOD CELLS,[3],0 /100WBC
same,PLATELET COUNT,[3],1138 x10E3/uL
same,ALANINE AMINOTRANSFERASE,[3],72.67 u/L
same,ALBUMIN,[3],3.87 G/DL
same,ALKALINE PHOSPHATASE,[3],445.67 u/L
same,ASPARTATE AMINOTRANSFERASE,[3],88 u/L
same,BLOOD UREA NITROGEN,[3],12 mg/dL
same,CARBON DIOXIDE,[3],33 mmol/L
same,CHLORIDE,[3],99 MEQ/L
same,CHOLESTEROL,[3],69.67 mg/dL
same,CREATINE PHOSPHOKINASE,[3],468 u/L
same,CREATININE,[3],0.2 mg/dL
same,GLUCOSE,[3],153.33 mg/dL
same,LACTATE DEHYDROGENASE,[3],135.67 u/L
same,LIPASE,[3],10.67 u/L
same,PHOSPHORUS,[3],11.03 mg/dL
same,POTASSIUM,[3],6.2 MEQ/L
same,SODIUM,[3],144.23 MEQ/L
same,TOTAL BILIRUBIN,[3],0.17 mg/dL
same,TOTAL PROTEIN,[3],5.57 G/DL
same,URIC ACID,[3],0.7 mg/dL
